± gives the standard deviation of the reports.
Row | glass transition temperature [°C] | SMILES
1 | 260.00 | *c1ccc(Oc2ccc(N3C(=O)c4ccc(Oc5ccc(S(=O)(=O)c6ccc(Oc7ccc8c(c7)C(=O)N(*)C8=O)cc6)cc5)cc4C3=O)cc2)cc1 (repeat unit)
2 | 131.00 | */C=C/C1CC(*)C2C(=O)N(CCCC)C(=O)C12 (repeat unit)
3 | 112.00 | *CC(CCCCCCCCCCCC)COC(=O)NC(=O)c1cccc(C(=O)NC(=O)O*)c1 (repeat unit)
4 | 24.00 | *CCOC(=O)Cc1ccc(C(=O)O*)cc1 (repeat unit)
5 | 52.00 | *CCCCCOC(=O)Nc1ccc(C)c(NC(=O)O*)c1 (repeat unit)
6 | 32.90 | *O[Si](C)(C)CCC/N=C1C=C/C(=N/CCC[Si](*)(C)C)c2c(O)ccc(O)c2\1 (repeat unit)
7 | 260.00 | *Oc1ccc(C(=O)Nc2ccc(S(=O)(=O)c3ccc(NC(=O)c4ccc(Oc5ccc(C(=O)c6ccc(S(=O)(=O)c7ccc(C(=O)c8ccc(*)cc8)cc7)cc6)cc5)cc4)cc3)cc2)cc1 (repeat unit)
8 | 57.00 | *CC(*)(C)C(=O)OCCOCCOc1ccc(/N=N/c2ccc(C#N)cc2)cc1 (repeat unit)
9 | 177.00 | *Oc1cccc(Oc2ccc(S(=O)(=O)c3ccc(*)cc3)cc2)c1 (repeat unit)
10 | 327.00 | *c1c(C)cc(-c2cc(C)c(N3C(=O)c4cccc(Oc5c(C)cc(-c6cc(C)c(Oc7cccc8c7C(=O)N(*)C8=O)c(C)c6)cc5C)c4C3=O)c(C)c2)cc1C (repeat unit)
11 | 191.00 | *c1ccc(Oc2ccc(C(c3ccc(Oc4ccc(N5C(=O)c6ccc(Oc7ccccc7Oc7ccc8c(c7)C(=O)N(*)C8=O)cc6C5=O)cc4C(F)(F)F)cc3)(C(F)(F)F)C(F)(F)F)cc2)c(C(F)(F)F)c1 (repeat unit)
12 | 251.00 | *C(=O)Nc1ccc(Oc2ccc(NC(=O)c3ccc4c(c3)C(=O)N(c3ccc(Cc5ccc(N6C(=O)c7ccc(*)cc7C6=O)cc5)cc3)C4=O)cc2)cc1 (repeat unit)
13 | 193.00 | *c1ccc(Oc2ccccc2Oc2ccc(N3C(=O)c4ccc(Oc5ccccc5Oc5ccc6c(c5)C(=O)N(*)C6=O)cc4C3=O)cc2)cc1 (repeat unit)
14 | 257.50 | *C(=O)Nc1cccc(NC(=O)/C=C/c2cccc(N3C(=O)c4ccc(*)cc4C3=O)c2)c1 (repeat unit)
15 | 195.00 | *CCC1C(=O)N(c2ccc(N(C)C)cc2)C(=O)C1* (repeat unit)
16 | 65.00 | *CC(CCCCCCCC)COC(=O)NC(=O)c1cccc(C(=O)NC(=O)O*)c1 (repeat unit)
17 | 38.00 | *CC(F)(F)C(F)(F)COC(=O)NCC(F)(F)C(F)(F)C(F)(F)C(F)(F)CNC(=O)O* (repeat unit)
18 | 235.00 | *c1ccc(Oc2cccc(N3C(=O)c4ccc(Oc5cccc6c(Oc7ccc8c(c7)C(=O)N(*)C8=O)cccc56)cc4C3=O)c2)cc1 (repeat unit)
19 | 180.00 | *Oc1ccc(C(C)(C)c2ccc(Oc3ccc(*)nn3)cc2)cc1 (repeat unit)
20 | -59.50 | *NC(CCC(=O)OCCCCCCCC)C(*)=O (repeat unit)
21 | 250.00 | *c1cccc(NC(=O)c2ccc(OCCOc3ccc(C(=O)Nc4ccc5[nH]c(*)nc5c4)cc3)cc2)c1 (repeat unit)
22 | 361.00 | *C(=O)Nc1cc(NC(=O)c2ccc3c(c2)C(=O)N(c2cccc(N4C(=O)c5ccc(*)cc5C4=O)c2)C3=O)cc(-c2nc3ccccc3[nH]2)c1 (repeat unit)
23 | 72.00 | *CC(*)c1ccccc1COCc1ccccc1 (repeat unit)
24 | 252.00 | *Cc1cc2cc(C(=O)Nc3ccc(NC(=O)c4cc5cc(*)c(OC(=O)COc6ccc7ccc(=O)oc7c6)cc5oc4=O)cc3)c(=O)oc2cc1OC(=O)COc1ccc2ccc(=O)oc2c1 (repeat unit)
25 | 145.00 | *Oc1ccc(SC(=O)Oc2ccc(C(C)(C)c3ccc(OC(=O)Sc4ccc(*)cc4)cc3)cc2)cc1 (repeat unit)
26 | 118.00 | *CC1CC(COC(=O)c2ccc(C(=O)O*)cc2)CC(C(C)(C)C)C1 (repeat unit)
27 | 34.00 | *CCCCCCCCCCCCCCCCOC(=O)NCCCCCCCCCCNC(=O)O* (repeat unit)

Row | glass transition temperature [°C] | SMILES
28 | 20.00 | *CC(F)(F)C(F)(F)C(F)(F)C(F)(F)COC(=O)NCC(F)(F)C(F)(F)C(F)(F)C(F)(F)CNC(=O)O* (repeat unit)
29 | 122.00 | *CCCCOC(=O)Nc1ccc(Cc2ccc(NC(=O)OCCCCn3c4ccccc4c4cc(/C=C(\C#N)C(=O)OCCCCCCOC(=O)/C(C#N)=C/c5ccc6c(c5)c5ccccc5n6*)ccc43)cc2)cc1 (repeat unit)
30 | 156.00 | *Oc1ccc(C(=O)c2ccccc2)c(-c2cc(Oc3ccc(C(C)(C)c4ccc(*)cc4)cc3)ccc2C(=O)c2ccccc2)c1 (repeat unit)
31 | 325.00 | *c1c(C)cc(C)c(N2C(=O)c3cccc(Oc4c(C)cc(-c5cc(C)c(Oc6cccc7c6C(=O)N(*)C7=O)c(C)c5)cc4C)c3C2=O)c1C (repeat unit)
32 | -13.20 | *CCCCOCCCCOCCCCOC(=O)c1ccc(/N=C/c2ccc(/C=N/c3ccc(C(=O)O*)cc3)cc2)cc1 (repeat unit)
33 | 160.00 | *Oc1ccc(NC(=O)c2cc(NC(=O)CCCCCCCCCCN3C(=O)c4ccccc4C3=O)cc(C(=O)Nc3ccc(*)cc3)c2)cc1 (repeat unit)
34 | 29.00 | *CC(*)(C)C(=O)OCc1ccc2c(c1)c1ccccc1n2CCCCCCCCCC (repeat unit)
35 | -1.00 | *CC1CCC(COC(=O)CCC(=O)O*)CC1 (repeat unit)
36 | 166.00 | *Oc1ccc(C2(c3ccc(OC(*)=O)cc3)CCCC2)cc1 (repeat unit)
37 | 144.00 | *CC(*)(C)C(=O)OCCN(CC)c1ccc(/N=N/c2ccc(S(C)(=O)=O)cc2)cc1 (repeat unit)
38 | 135.00 | *OC(COC(=O)c1cccc(-c2ccc(C(*)=O)cc2)c1)COc1ccc(/N=N/c2ccc(C#N)cc2)cc1 (repeat unit)
39 | 117.00 | *CCCCOC(=O)Nc1ccc(C)c(NC(=O)OCCCCn2c3ccccc3c3cc(/C=C(\C#N)C(=O)OCCCCCCOC(=O)/C(C#N)=C/c4ccc5c(c4)c4ccccc4n5*)ccc32)c1 (repeat unit)
40 | 121.42 ± 2.3 | *CCOC(=O)c1ccc2cc(C(=O)O*)ccc2c1 (repeat unit) [Poly(ethylene 2,6-naphthalate)]
41 | 360.00 | *c1ccc(Cc2ccc(N3C(=O)c4cc(-c5ccc(C(C)(C)C)cc5)c(-c5cc6c(cc5-c5ccc(C(C)(C)C)cc5)C(=O)N(*)C6=O)cc4C3=O)cc2)cc1 (repeat unit)
42 | 268.00 | *Oc1ccc(NC(=O)c2cc(C(=O)Nc3ccc(*)cc3)cc(C(C)(C)C)c2)cc1 (repeat unit)
43 | 130.00 | *CC(COc1ccc(S(=O)(=O)c2ccc(O*)cc2)cc1)OC(C)=O (repeat unit)
44 | 275.00 | *c1ccc(Oc2ccc(N3C(=O)c4ccc(-c5ccc6c(c5)C(=O)N(*)C6=O)cc4C3=O)cc2Br)c(Br)c1 (repeat unit)
45 | 195.00 | *c1ccc(Oc2ccc(Oc3ccc(-c4cnc5cc(-c6ccc7nc(*)cnc7c6)ccc5n4)cc3)cc2)cc1 (repeat unit)
46 | 46.00 | *CCCCCCOC(=O)c1cc(OCCCCCCOc2ccc(/N=N/c3ccc(C#N)cc3)cc2)cc(C(=O)OCCCCCCn2c(=O)c3cc4c(=O)n(*)c(=O)c4cc3c2=O)c1 (repeat unit)
47 | 311.00 | *c1ccc(-c2c(-c3ccccc3)nc3ccc(Oc4ccc5nc(-c6ccccc6)c(*)c(-c6ccccc6)c5c4)cc3c2-c2ccccc2)cc1 (repeat unit)
48 | 40.00 | *CCCCCCCCCCCCCCCCOC(=O)Nc1ccc(Cc2ccc(NC(=O)O*)cc2)cc1 (repeat unit)
49 | 213.00 | *c1cccc(Oc2cccc(Oc3cccc(N4C(=O)c5ccc(-c6cccc7c6C(=O)N(*)C7=O)cc5C4=O)c3)c2)c1 (repeat unit)
50 | 112.00 | *OC(COC(=O)c1c(F)c(F)c(-c2c(F)c(F)c(C(*)=O)c(F)c2F)c(F)c1F)COc1ccc(/N=N/c2ccc(C#N)cc2)cc1 (repeat unit)
51 | 52.00 | *c1ccc(-c2ccc(-c3ccc(-c4ccc(*)n4CCCCCCCCCCCC)s3)s2)s1 (repeat unit)
52 | -5.00 | *OC1CCC(OC(=O)OCCCCCOC(*)=O)CC1 (repeat unit)
53 | 177.00 | *C(=O)Oc1ccc(-c2ccc(OC(=O)c3ccc4c(c3)C(=O)N(c3ccc(-c5ccc(N6C(=O)c7ccc(*)cc7C6=O)cc5C)c(C)c3)C4=O)cc2C)c(C)c1 (repeat unit)
54 | 180.00 | *Nc1cc([N+](=O)[O-])c(NC(=O)CCCCCCC(*)=O)cc1/C=C/c1ccc(N(C)C)cc1 (repeat unit)

Row | SMILES | glass transition temperature [°C]
55 | *c1cccc(P(=O)(c2ccccc2)c2cccc(-n3c(=O)c4cc5c(=O)n(*)c(=O)c5c(-c5cc(C(F)(F)F)cc(C(F)(F)F)c5)c4c3=O)c2)c1 (repeat unit) | 299.00
56 | *Cc1ccc(COP(=O)(/N=N/c2ccc(-c3ccc(/N=N/P(=O)(O*)OC)cc3)cc2)OC)cc1 (repeat unit) | 48.00
57 | *CC(*)c1ccc(O)cc1 (repeat unit) [Poly(4-hydroxystyrene)] | 157.42 ± 0.8
58 | *C1CCOC1* (repeat unit) | 131.00
59 | *CC(*)CNc1ccc([N+](=O)[O-])cn1 (repeat unit) | 151.00
60 | *Oc1ccc(P(=O)(c2ccccc2)c2ccc(Oc3ccc(C(C)(C)c4ccc(*)cc4)cc3)cc2)cc1 (repeat unit) | 199.00
61 | *CC(*)c1ccc([Si](C)(C)C)cc1 (repeat unit) | 136.00
62 | *CCC(c1ccccc1)[Si](*)(C)C (repeat unit) | 27.00
63 | *CC(CCCCCC)O* (repeat unit) | -67.00
64 | *Sc1cc(C)c(*)cc1C (repeat unit) | 298.00
65 | *CC(COCC)O* (repeat unit) | -61.00
